Assay results as given in PMC11040352, “CD38‐Specific Gallium‐68 Labeled Peptide Radiotracer Enables Pharmacodynamic Monitoring in Multiple Myeloma with PET” (Advanced Science, 2024).
Like-named read-outs stand apart in the source and are kept apart here.

Key:
[1] = Octanol/PBS partition coefficient (LogD, pH 7.4); format: physicochemical
Experimental: Partition coefficients, logD (pH7.4) value, were determined according to a literature procedure.^[ [46] ^] Briefly, a 10 µL solution of [^68Ga]Ga‐AJ206 (around 10 µCi) was added to a solution of 1‐octanol (200 µL) mixed with phosphate buffered saline (PBS) (190 µL) in a 1.5 mL centrifuge tube. After the mixture was vigorously shaken and vortexed, it was centrifuged at 3000 rpm for 5 min. Aliquots (10 µL) were removed from the two phases, and the radioactivity was measured on an automated gamma counter (1282 Compugamma CS, Pharmacia/LKB Nuclear, Inc., Gaithersburg, MD). The logD was calculated as the average log ratio value of the radioactivity in the 1‐octanol fraction and the PBS fraction from the four samples.

[2] = Ex vivo biodistribution in mice with MM1S tumor xenografts; conditions: both sexes, NSG, mouse; for tissue uptake at 5 min: 5 min p.i.; for tissue uptake at 0.5 h: 30 min p.i.; for tissue uptake at 1 h: 60 min p.i.; for tissue uptake at 1.5 h: 90 min p.i.; for tissue uptake at 2 h: 120 min p.i.
Experimental: Animal studies were performed under Johns Hopkins University Animal Care and Use Committee (ACUC‐approved protocol (Principal investigator: Sridhar Nimmagadda, Ph.D. and Protocol number M021M175). Male and female NSG mice (5‐6 weeks old) were used to establish xenografts by administering 3 million cells (50% Corning Matrigel) subcutaneously to form various tumor models within 3–4 weeks. Imaging or biodistribution studies (n = 3–5) were conducted on mice with tumor volumes of 100–200 mm^3. Disseminated tumor models were developed by injecting 4–5 million cells in saline intravenously for MOLP8 and MM1S‐Luc models (n = 4–5). Luciferase expressing MM1S cell line (MM1S‐Luc) was used to monitor cancer cell dissemination in the body. Tumor establishment was confirmed by injecting D‐Luciferin intraperitoneally (150 mg kg^−1) and imaged mice after 10 min in IVIS bioluminescence imaging system. Bone marrow tumors were ready for imaging after 25–30 d of implantation.
Mice with 100–200 mm^3 tumor volume were used for ex vivo biodistribution studies. For radiotracer pharmacokinetics studies, mice with MOLP8 tumor xenografts received ≈80 µCi (2.96 MBq) [^68Ga]Ga‐AJ206 and were sacrificed at pre‐determined time points (5, 30, 60 and 120 min). Similarly, for dosimetry study, mice with MM1S tumor xenografts received ≈80 µCi (2.96 MBq) of [^68Ga]Ga‐AJ206 and were sacrificed at pre‐determined time points (5, 30, 60, 90 and 120 min). All other mice were injected with ≈50µCi (1.85 MBq) [^68Ga]Ga‐AJ206 and were sacrificed at 60 min. The selected tissues were collected, weighed, counted, and their %ID g^−1 values calculated for biodistribution analysis. The tissues included blood, muscle, tumor, thymus, heart, lung, liver, pancreas, stomach, small intestine, large intestine, spleen, adrenals, kidney, bladder, femur, and brain.

[3] = adrenals, 80 µCi, MM1S xenograft mice, read-out: uptake in adrenals
[4] = bladder, 80 µCi, MM1S xenograft mice, read-out: uptake in bladder
[5] = blood, 80 µCi, total radioactivity, MM1S xenograft mice, read-out: uptake in blood
[6] = brain, 80 µCi, MM1S xenograft mice, read-out: uptake in brain
[7] = femur, 80 µCi, MM1S xenograft mice, read-out: uptake in femur
[8] = heart, 80 µCi, total radioactivity, MM1S xenograft mice, read-out: uptake in heart
[9] = kidney, 80 µCi, MM1S xenograft mice, read-out: uptake in kidney
[10] = large intestine (with contents), 80 µCi, MM1S xenograft mice, read-out: uptake in large intestine (with contents)
[11] = liver, 80 µCi, total radioactivity, MM1S xenograft mice, read-out: uptake in liver

CC[C@H](C)[C@@H]1NC(=O)[C@@H]2CCCN2C(=O)[C@H](Cc2ccccc2)NC(=O)[C@H](CC(=O)O)NC(=O)[C@H](C)NC(=O)[C@@H]2CSCc3cc(cc(c3)CSC[C@H](NC(=O)[C@H](C)NC(=O)CCOCCOCCOCCNC(=O)CN3CCN(CC(=O)O)CCN(CC(=O)O)CC3)C(=O)N[C@@H](C(C)C)C(=O)N3CCC[C@H]3C(=O)N2)CSC[C@@H](C(N)=O)NC(=O)[C@H](Cc2ccc(O)cc2)NC(=O)[C@H](Cc2c[nH]c3ccccc23)NC1=O [[^68Ga]Ga‐AJ206, metal not drawn]
logD [1]: -1.32 ± 0.08 | tissue uptake at 5 min [2, 3]: 5.07 ± 0.11 %ID/g | tissue uptake at 0.5 h [2, 3]: 2.08 ± 0.38 %ID/g | tissue uptake at 1 h [2, 3]: 0.59 ± 0.06 %ID/g | tissue uptake at 1.5 h [2, 3]: 0.44 ± 0.1 %ID/g | tissue uptake at 2 h [2, 3]: 0.57 ± 0.14 %ID/g | tissue uptake at 5 min [2, 4]: 9.35 ± 1.87 %ID/g | tissue uptake at 0.5 h [2, 4]: 4.51 ± 0.93 %ID/g | tissue uptake at 1 h [2, 4]: 0.75 ± 0.08 %ID/g | tissue uptake at 1.5 h [2, 4]: 1.23 ± 0.1 %ID/g | tissue uptake at 2 h [2, 4]: 0.9 ± 0.37 %ID/g | tissue uptake at 1 h ([2]; blood, 2 mg/kg, MM1S xenograft mice with blocking dose (2 mg kg^−1 AJ206), read-out: uptake in blood): 2.17 ± 1.17 %ID/g | tissue uptake at 2 h ([2]; blood, 80 µCi, MM1S xenograft mice, read-out: uptake in blood): 0.33 ± 0.07 %ID/g | tissue uptake at 5 min [2, 5]: 20.7 ± 1.68 %ID/g | tissue uptake at 0.5 h [2, 5]: 2.95 ± 0.37 %ID/g | tissue uptake at 1 h [2, 5]: 0.75 ± 0.29 %ID/g | tissue uptake at 1.5 h [2, 5]: 0.75 ± 0.24 %ID/g | tissue uptake at 5 min [2, 6]: 0.44 ± 0.07 %ID/g | tissue uptake at 0.5 h [2, 6]: 0.21 ± 0.12 %ID/g | tissue uptake at 1 h [2, 6]: 0.06 ± 0.03 %ID/g | tissue uptake at 1.5 h [2, 6]: 0.03 ± 0.01 %ID/g | tissue uptake at 2 h [2, 6]: 0.02 ± 0.01 %ID/g | tissue uptake at 1 h ([2]; femur, 2 mg/kg, MM1S xenograft mice with blocking dose (2 mg kg^−1 AJ206), read-out: uptake in femur): 0.25 ± 0.09 %ID/g | tissue uptake at 5 min [2, 7]: 3.37 ± 0.31 %ID/g | tissue uptake at 0.5 h [2, 7]: 0.86 ± 0.06 %ID/g | tissue uptake at 1 h [2, 7]: 0.33 ± 0.12 %ID/g | tissue uptake at 1.5 h [2, 7]: 0.28 ± 0.05 %ID/g | tissue uptake at 2 h [2, 7]: 0.09 ± 0.02 %ID/g | tissue uptake at 1 h ([2]; heart, 2 mg/kg, MM1S xenograft mice with blocking dose (2 mg kg^−1 AJ206), read-out: uptake in heart): 0.33 ± 0.03 %ID/g | tissue uptake at 5 min [2, 8]: 6.38 ± 0.42 %ID/g | tissue uptake at 0.5 h [2, 8]: 1 ± 0.15 %ID/g | tissue uptake at 1 h [2, 8]: 0.29 ± 0.03 %ID/g | tissue uptake at 1.5 h [2, 8]: 0.35 ± 0.08 %ID/g | tissue uptake at 2 h [2, 8]: 0.16 ± 0.01 %ID/g | tissue uptake at 1 h ([2]; kidney, 2 mg/kg, MM1S xenograft mice with blocking dose (2 mg kg^−1 AJ206), read-out: uptake in kidney): 15.9 ± 1.12 %ID/g | tissue uptake at 5 min [2, 9]: 31.5 ± 4.15 %ID/g | tissue uptake at 0.5 h [2, 9]: 21.6 ± 2.02 %ID/g | tissue uptake at 1 h [2, 9]: 14.1 ± 0.57 %ID/g | tissue uptake at 1.5 h [2, 9]: 13.2 ± 1.59 %ID/g | tissue uptake at 2 h [2, 9]: 9.39 ± 1.5 %ID/g | tissue uptake at 5 min [2, 10]: 3.11 ± 0.38 %ID/g | tissue uptake at 0.5 h [2, 10]: 0.75 ± 0.04 %ID/g | tissue uptake at 1 h [2, 10]: 0.29 ± 0.03 %ID/g | tissue uptake at 1.5 h [2, 10]: 0.27 ± 0.05 %ID/g | tissue uptake at 2 h [2, 10]: 0.27 ± 0.19 %ID/g | tissue uptake at 1 h ([2]; liver, 2 mg/kg, MM1S xenograft mice with blocking dose (2 mg kg^−1 AJ206), read-out: uptake in liver): 1.45 ± 0.26 %ID/g | tissue uptake at 5 min [2, 11]: 30.3 ± 3.51 %ID/g | tissue uptake at 0.5 h [2, 11]: 3.64 ± 0.31 %ID/g | tissue uptake at 1 h [2, 11]: 1.38 ± 0.04 %ID/g | tissue uptake at 1.5 h [2, 11]: 1.16 ± 0.08 %ID/g | tissue uptake at 2 h [2, 11]: 0.73 ± 0.1 %ID/g | tissue uptake at 1 h ([2]; lung, 2 mg/kg, MM1S xenograft mice with blocking dose (2 mg kg^−1 AJ206), read-out: uptake in lung): 0.94 ± 0.09 %ID/g | tissue uptake at 5 min ([2]; lung, 80 µCi, total radioactivity, MM1S xenograft mice, read-out: uptake in lung): 10.2 ± 4.52 %ID/g
